Test results taken from ChEMBL document CHEMBL1201862, “PubChem BioAssay data set” (2004).
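Exposure lasted 48 hours, with cells grown in 96-well plates and compounds tested at five concentrations. Abbreviation: GI50, concentration required for 50% inhibition of growth.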 Calls of active or inactive are those of the source. Cut-off read from the data, not from the text of the source: active = GI50 up to about 1.1 µM and inactive = higher.

What was measured:
Assay in all cases: NCI anticancer screen, dose series, 48 h
SK-OV-3 = test system: SK-OV-3
SNB-19 = test system: SNB-19
RPMI-8226 = test system: RPMI-8226
SW-620 = test system: SW-620
DMS-114 = test system: DMS-114
NCI-H460 = test system: NCI-H460
SF-295 = test system: SF-295
A549 = test system: A549
KM12 = test system: KM12
NCI-H522 = test system: NCI-H522
HCC 2998 = test system: HCC 2998
OVCAR-8 = test system: OVCAR-8
786-0 = test system: 786-0
NCI-H226 = test system: NCI-H226
HCT-15 = test system: HCT-15
OVCAR-3 = test system: OVCAR-3
HCT-116 = test system: HCT-116
M19-MEL = test system: M19-MEL
SK-MEL-28 = test system: SK-MEL-28
CCRF-CEM = test system: CCRF-CEM
HOP-62 = test system: HOP-62
RXF 393 = test system: RXF 393
COLO 205 = test system: COLO 205
LOX IMVI = test system: LOX IMVI
MOLT-4 = test system: MOLT-4
UACC-62 = test system: UACC-62
TK-10 = test system: TK-10
IGROV-1 = test system: IGROV-1
SK-MEL-5 = test system: SK-MEL-5
SF-268 = test system: SF-268
KM-20L2 = test system: KM-20L2
XF498 = test system: XF498
SF-539 = test system: SF-539
DMS-273 = test system: DMS-273
UACC-257 = test system: UACC-257
K562 = test system: K562
SR = test system: SR
HOP-18 = test system: HOP-18
HT-29 = test system: HT-29
HOP-92 = test system: HOP-92
Malme-3M = test system: Malme-3M
OVCAR-5 = test system: OVCAR-5
U-251 = test system: U-251
ACHN = test system: ACHN
SN12C = test system: SN12C
LXFL 529 = test system: LXFL 529
NCI-H23 = test system: NCI-H23
CAKI-1 = test system: CAKI-1
DLD-1 = test system: DLD-1
HL-60 = test system: HL-60
EKVX = test system: EKVX
SK-MEL-2 = test system: SK-MEL-2
OVCAR-4 = test system: OVCAR-4
UO-31 = test system: UO-31
SNB-75 = test system: SNB-75
M14 = test system: M14

In the case of `COC(=O)C(=Cc1cc(OC)c(OC)c(OC)c1-c1cc2c(cc1C(C)=O)OCO2)C(=O)OC`, the GI50 (SK-OV-3) was 71.9 µM (inactive), the GI50 (SNB-19) was 39 µM (inactive) and the GI50 (RPMI-8226) was 35.5 µM (inactive). For the same compound, the GI50 (SW-620) was 46.1 µM (inactive), the GI50 (DMS-114) was 37.5 µM (inactive) and the GI50 (NCI-H460) was 62.8 µM (inactive). The GI50 (SF-295) was 48.5 µM (inactive), the GI50 (A549) was 55.6 µM (inactive) and the GI50 (KM12) was 32.2 µM (inactive). The GI50 (NCI-H522) was 28.5 µM (inactive), the GI50 (HCC 2998) was 40.3 µM (inactive) and the GI50 (OVCAR-8) was 59 µM (inactive). The GI50 (786-0) was 33.1 µM (inactive), the GI50 (NCI-H226) was 50.9 µM (inactive) and the GI50 (HCT-15) was 24.2 µM. For the same compound, the GI50 (OVCAR-3) was 26.5 µM (inactive), the GI50 (HCT-116) was 32.2 µM (inactive) and the GI50 (M19-MEL) was 34.6 µM (inactive). For the same compound, the GI50 (SK-MEL-28) was 33.1 µM (inactive), the GI50 (CCRF-CEM) was 30.6 µM (inactive) and the GI50 (HOP-62) was 36.8 µM (inactive). For the same compound, the GI50 (RXF 393) was 33.7 µM (inactive), the GI50 (COLO 205) was 35.3 µM (inactive) and the GI50 (LOX IMVI) was 30.8 µM (inactive). For the same compound, the GI50 (MOLT-4) was 52.2 µM (inactive), the GI50 (UACC-62) was 32.6 µM (inactive) and the GI50 (TK-10) was 77.8 µM (inactive). For the same compound, the GI50 (IGROV-1) was 50.1 µM (inactive), the GI50 (SK-MEL-5) was 32.7 µM (inactive) and the GI50 (SF-268) was 57.1 µM (inactive). The GI50 (KM-20L2) was 34.3 µM (inactive), the GI50 (XF498) was 27.4 µM (inactive) and the GI50 (SF-539) was 43.8 µM (inactive). The GI50 (DMS-273) was 30.7 µM (inactive), the GI50 (UACC-257) was 52 µM (inactive) and the GI50 (K562) was 37.6 µM (inactive). The GI50 (SR) was 50.4 µM (inactive), the GI50 (HOP-18) was 52.6 µM (inactive) and the GI50 (HT-29) was 40.6 µM (inactive). For the same compound, the GI50 (HOP-92) was 44 µM (inactive), the GI50 (Malme-3M) was 38.7 µM (inactive) and the GI50 (OVCAR-5) was 43 µM (inactive). For the same compound, the GI50 (U-251) was 37.2 µM (inactive), the GI50 (ACHN) was 46.8 µM (inactive) and the GI50 (SN12C) was 27.7 µM (inactive). For the same compound, the GI50 (LXFL 529) was 33.8 µM (inactive), the GI50 (NCI-H23) was 34.7 µM (inactive) and the GI50 (CAKI-1) was 54.3 µM (inactive). For the same compound, the GI50 (DLD-1) was 26.1 µM (inactive), the GI50 (HL-60) was 34.2 µM (inactive) and the GI50 (EKVX) was 72.8 µM (inactive). The GI50 (SK-MEL-2) was 32.4 µM (inactive).
In the case of `COc1cc2c(cc1OC)C(O)[C@H](Br)C(C)(C)O2` (some centres not stated), the GI50 (SK-OV-3) was > 100 µM (inactive), the GI50 (OVCAR-4) was > 100 µM (inactive) and the GI50 (SNB-19) was > 100 µM (inactive). The GI50 (RPMI-8226) was > 100 µM (inactive), the GI50 (SW-620) was > 100 µM (inactive) and the GI50 (DMS-114) was > 100 µM (inactive). For the same compound, the GI50 (NCI-H460) was > 100 µM (inactive), the GI50 (SF-295) was > 100 µM (inactive) and the GI50 (A549) was > 100 µM (inactive). The GI50 (KM12) was > 100 µM (inactive), the GI50 (NCI-H522) was > 100 µM (inactive) and the GI50 (HCC 2998) was > 100 µM (inactive). For the same compound, the GI50 (OVCAR-8) was > 100 µM (inactive), the GI50 (786-0) was > 100 µM (inactive) and the GI50 (NCI-H226) was > 100 µM (inactive). The GI50 (HCT-15) was over 100 µM, the GI50 (OVCAR-3) was > 100 µM (inactive) and the GI50 (HCT-116) was > 100 µM (inactive). For the same compound, the GI50 (M19-MEL) was > 100 µM (inactive), the GI50 (SK-MEL-28) was > 100 µM (inactive) and the GI50 (CCRF-CEM) was > 100 µM (inactive). For the same compound, the GI50 (HOP-62) was > 100 µM (inactive), the GI50 (RXF 393) was > 100 µM (inactive) and the GI50 (COLO 205) was > 100 µM (inactive). The GI50 (LOX IMVI) was > 100 µM (inactive), the GI50 (MOLT-4) was > 100 µM (inactive) and the GI50 (UACC-62) was > 100 µM (inactive). For the same compound, the GI50 (TK-10) was > 100 µM (inactive), the GI50 (IGROV-1) was > 100 µM (inactive) and the GI50 (SK-MEL-5) was > 100 µM (inactive). For the same compound, the GI50 (SF-268) was > 100 µM (inactive), the GI50 (KM-20L2) was > 100 µM (inactive) and the GI50 (XF498) was > 100 µM (inactive). For the same compound, the GI50 (SF-539) was > 100 µM (inactive), the GI50 (DMS-273) was > 100 µM (inactive) and the GI50 (UACC-257) was > 100 µM (inactive). The GI50 (K562) was > 100 µM (inactive), the GI50 (SR) was > 100 µM (inactive) and the GI50 (UO-31) was > 100 µM (inactive). The GI50 (HOP-18) was > 100 µM (inactive), the GI50 (HT-29) was > 100 µM (inactive) and the GI50 (HOP-92) was > 100 µM (inactive). The GI50 (Malme-3M) was > 100 µM (inactive), the GI50 (OVCAR-5) was > 100 µM (inactive) and the GI50 (U-251) was > 100 µM (inactive). The GI50 (ACHN) was > 100 µM (inactive), the GI50 (SNB-75) was 84.3 µM (inactive) and the GI50 (SN12C) was > 100 µM (inactive). The GI50 (LXFL 529) was > 100 µM (inactive), the GI50 (NCI-H23) was > 100 µM (inactive) and the GI50 (DLD-1) was > 100 µM (inactive). For the same compound, the GI50 (HL-60) was > 100 µM (inactive), the GI50 (M14) was > 100 µM (inactive) and the GI50 (EKVX) was > 100 µM (inactive). For the same compound, the GI50 (SK-MEL-2) was > 100 µM (inactive).
